Laboratory results published in ChEMBL document CHEMBL1201862, “PubChem BioAssay data set” (2004).
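All cell lines were grown in 96-well plates and treated with compound for 48 hours. GI50: concentration for 50% inhibition of growth.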 Activity calls are given as the source filed them. No stated cut-off is given here; in the data, active = GI50 up to about 1.1 µM and inactive = higher.

What was measured:
Experiment in all cases: NCI anticancer screen, dose series, 48 h
786-0 = tested on: 786-0
A498 = tested on: A498
CCRF-CEM = tested on: CCRF-CEM
HOP-62 = tested on: HOP-62
IGROV-1 = tested on: IGROV-1
K562 = tested on: K562
LOX IMVI = tested on: LOX IMVI
NCI-H23 = tested on: NCI-H23
RPMI-8226 = tested on: RPMI-8226
SF-539 = tested on: SF-539
SK-MEL-28 = tested on: SK-MEL-28
SNB-75 = tested on: SNB-75
U-251 = tested on: U-251
UACC-257 = tested on: UACC-257
UACC-62 = tested on: UACC-62
NCI-H522 = tested on: NCI-H522
SF-268 = tested on: SF-268
SK-MEL-2 = tested on: SK-MEL-2
SR = tested on: SR

Measured: GI50

CC(C)(C)c1cc(COc2c3sc(=S)sc3c(OCc3cc(C(C)(C)C)cc(C(C)(C)C)c3)c3sc(=S)sc23)cc(C(C)(C)C)c1
inactive: 786-0 > 100 µM | A498 > 100 µM | CCRF-CEM > 100 µM | HOP-62 > 100 µM | IGROV-1 > 100 µM | K562 > 100 µM | LOX IMVI > 100 µM | NCI-H23 > 100 µM | RPMI-8226 > 100 µM | SF-539 > 100 µM | SK-MEL-28 > 100 µM | SNB-75 > 100 µM | U-251 > 100 µM | UACC-257 > 100 µM | UACC-62 > 100 µM

c1cnc2c(c1)-n1cccc1C1(CCSC1)NN2 (stereo not given)
inactive: 786-0 > 100 µM | CCRF-CEM > 100 µM | HOP-62 > 100 µM | K562 > 100 µM | LOX IMVI > 100 µM | NCI-H23 > 100 µM | NCI-H522 > 100 µM | RPMI-8226 > 100 µM | SF-268 > 100 µM | SF-539 > 100 µM | SK-MEL-28 > 100 µM | SK-MEL-2 > 100 µM | SNB-75 > 100 µM | SR > 100 µM | U-251 > 100 µM | UACC-257 > 100 µM

CCOC(=O)C1(Br)C(c2ccccc2)NC(=O)N(C2OC(COC(=O)c3ccccc3)C(OC(=O)c3ccccc3)C2OC(=O)c2ccccc2)C1(C)Br (stereo not given)
inactive: 786-0 12.9 µM | A498 38.9 µM | CCRF-CEM 3.15 µM | HOP-62 38.9 µM | IGROV-1 34.9 µM | K562 8.91 µM | LOX IMVI 21.8 µM | NCI-H23 29.4 µM | NCI-H522 10.2 µM | RPMI-8226 9.31 µM | SF-268 > 55.5 µM | SF-539 38.7 µM | SK-MEL-28 > 47 µM | SK-MEL-2 31.5 µM | SNB-75 13.3 µM | U-251 27.8 µM | UACC-257 18.6 µM | UACC-62 10.6 µM

CC(C)c1ccc(/C=C2\CSCC3=C2N=C(S)NC3c2ccc(C(C)C)cc2)cc1 (stereo not given)
inactive: 786-0 > 100 µM | CCRF-CEM 35.8 µM | HOP-62 > 100 µM | IGROV-1 > 100 µM | K562 34.8 µM | LOX IMVI 51.6 µM | NCI-H23 46.5 µM | NCI-H522 53.6 µM | RPMI-8226 67.6 µM | SF-268 > 100 µM | SF-539 > 100 µM | SK-MEL-28 > 100 µM | SK-MEL-2 > 100 µM | SR 53.3 µM | U-251 85.1 µM | UACC-257 34.6 µM | UACC-62 88.3 µM

NC1CC(n2ccc(=O)[nH]c2=O)OC1C(O)CO (stereo not given)
inactive: 786-0 > 100 µM | CCRF-CEM > 100 µM | HOP-62 > 100 µM | IGROV-1 > 100 µM | K562 > 100 µM | LOX IMVI > 100 µM | NCI-H23 > 100 µM | NCI-H522 > 100 µM | RPMI-8226 > 100 µM | SF-268 > 100 µM | SF-539 > 100 µM | SK-MEL-28 > 100 µM | SK-MEL-2 > 100 µM | SNB-75 > 100 µM | SR > 100 µM | U-251 > 100 µM | UACC-257 > 100 µM | UACC-62 > 100 µM

CCOC(=O)N[C@@H]1C2CC(=O)C(O2)[C@@H]1OC (stereo not given in full)
inactive: 786-0 > 100 µM | CCRF-CEM > 100 µM | HOP-62 > 100 µM | IGROV-1 > 100 µM | K562 > 100 µM | LOX IMVI > 100 µM | NCI-H23 > 100 µM | NCI-H522 > 100 µM | RPMI-8226 > 100 µM | SF-268 > 100 µM | SF-539 > 100 µM | SK-MEL-28 7.08 µM | SK-MEL-2 > 100 µM | SNB-75 > 100 µM | SR > 100 µM | U-251 > 100 µM | UACC-257 > 100 µM | UACC-62 > 100 µM

NCC(=O)OCN1C(=O)C2C3C=CC(C2C1=O)C1C2C(=O)N(COC(=O)CN)C(=O)C2C31 (stereo not given)
inactive: 786-0 22.8 µM | A498 > 100 µM | CCRF-CEM 22.9 µM | HOP-62 > 100 µM | IGROV-1 41.8 µM | K562 30.5 µM | LOX IMVI 20 µM | NCI-H23 21.1 µM | NCI-H522 12.5 µM | RPMI-8226 32.1 µM | SF-268 20.9 µM | SF-539 30.2 µM | SK-MEL-28 19.1 µM | SK-MEL-2 19.4 µM | SNB-75 23.6 µM | U-251 22 µM | UACC-257 36.3 µM | UACC-62 23 µM

N#CC1(c2nc3ccccc3o2)C(=O)C(=O)N(c2ccc(Cl)c(Cl)c2)C(=O)C1=O
inactive: 786-0 > 100 µM | CCRF-CEM 48 µM | HOP-62 > 100 µM | K562 71 µM | LOX IMVI > 100 µM | NCI-H23 > 100 µM | NCI-H522 > 100 µM | RPMI-8226 > 100 µM | SF-268 > 100 µM | SK-MEL-28 > 100 µM | SK-MEL-2 > 100 µM | SNB-75 > 100 µM | UACC-257 > 100 µM

COC(=O)C(Cc1nc2ccccc2nc1O)C(=O)C(=O)Nc1ccc(OC)cc1[N+](=O)[O-] (stereo not given)
inactive: 786-0 > 100 µM | CCRF-CEM > 100 µM | HOP-62 > 100 µM | IGROV-1 > 100 µM | K562 > 100 µM | LOX IMVI > 100 µM | NCI-H23 > 100 µM | NCI-H522 > 100 µM | RPMI-8226 > 100 µM | SF-268 > 100 µM | SF-539 > 100 µM | SK-MEL-28 > 100 µM | SK-MEL-2 > 100 µM | SR > 100 µM | U-251 > 100 µM | UACC-257 > 100 µM | UACC-62 > 100 µM

Cc1ccc(NC(=O)CC(=O)N2N=C(N(CCC#N)c3cccc(C)c3)CC2c2ccccc2)cc1 (stereo not given)
inactive: 786-0 > 100 µM | CCRF-CEM > 100 µM | HOP-62 > 100 µM | IGROV-1 > 100 µM | K562 > 100 µM | NCI-H23 > 100 µM | NCI-H522 > 100 µM | RPMI-8226 > 100 µM | SF-268 > 100 µM | SF-539 > 100 µM | SK-MEL-28 > 100 µM | SK-MEL-2 > 100 µM | SNB-75 > 100 µM | SR > 100 µM | U-251 > 100 µM | UACC-257 > 100 µM | UACC-62 > 100 µM

Cc1cc2c(cc1CO)N1Cc3cc(C)c(CO)cc3N(C2)C1
inactive: 786-0 > 100 µM | CCRF-CEM > 100 µM | HOP-62 > 100 µM | IGROV-1 > 100 µM | K562 > 100 µM | LOX IMVI > 100 µM | NCI-H23 > 100 µM | NCI-H522 > 100 µM | RPMI-8226 > 100 µM | SF-268 > 100 µM | SF-539 > 100 µM | SK-MEL-28 > 100 µM | SNB-75 > 100 µM | U-251 > 100 µM | UACC-62 > 100 µM

Nc1ccc(N)c2c1C(=O)c1c(N)ccc(N)c1C2=O
inactive: 786-0 36.9 µM | A498 61 µM | CCRF-CEM 23.8 µM | HOP-62 78.2 µM | IGROV-1 > 100 µM | K562 > 92.9 µM | LOX IMVI > 31.6 µM | NCI-H23 > 73.1 µM | NCI-H522 27.5 µM | RPMI-8226 > 57.3 µM | SF-268 45.7 µM | SF-539 31.8 µM | SK-MEL-28 98.6 µM | SK-MEL-2 > 84.7 µM | SNB-75 28.4 µM | U-251 50 µM | UACC-257 > 87.1 µM | UACC-62 58.3 µM
